For the experiment, the target named is T1, ANO1 (anoctamin 1, TMEM16A) (Homo sapiens, UniProt Q5XXA6).
T1 construct: human ANO1(abc)
T1 sequence (Q5XXA6 1-986): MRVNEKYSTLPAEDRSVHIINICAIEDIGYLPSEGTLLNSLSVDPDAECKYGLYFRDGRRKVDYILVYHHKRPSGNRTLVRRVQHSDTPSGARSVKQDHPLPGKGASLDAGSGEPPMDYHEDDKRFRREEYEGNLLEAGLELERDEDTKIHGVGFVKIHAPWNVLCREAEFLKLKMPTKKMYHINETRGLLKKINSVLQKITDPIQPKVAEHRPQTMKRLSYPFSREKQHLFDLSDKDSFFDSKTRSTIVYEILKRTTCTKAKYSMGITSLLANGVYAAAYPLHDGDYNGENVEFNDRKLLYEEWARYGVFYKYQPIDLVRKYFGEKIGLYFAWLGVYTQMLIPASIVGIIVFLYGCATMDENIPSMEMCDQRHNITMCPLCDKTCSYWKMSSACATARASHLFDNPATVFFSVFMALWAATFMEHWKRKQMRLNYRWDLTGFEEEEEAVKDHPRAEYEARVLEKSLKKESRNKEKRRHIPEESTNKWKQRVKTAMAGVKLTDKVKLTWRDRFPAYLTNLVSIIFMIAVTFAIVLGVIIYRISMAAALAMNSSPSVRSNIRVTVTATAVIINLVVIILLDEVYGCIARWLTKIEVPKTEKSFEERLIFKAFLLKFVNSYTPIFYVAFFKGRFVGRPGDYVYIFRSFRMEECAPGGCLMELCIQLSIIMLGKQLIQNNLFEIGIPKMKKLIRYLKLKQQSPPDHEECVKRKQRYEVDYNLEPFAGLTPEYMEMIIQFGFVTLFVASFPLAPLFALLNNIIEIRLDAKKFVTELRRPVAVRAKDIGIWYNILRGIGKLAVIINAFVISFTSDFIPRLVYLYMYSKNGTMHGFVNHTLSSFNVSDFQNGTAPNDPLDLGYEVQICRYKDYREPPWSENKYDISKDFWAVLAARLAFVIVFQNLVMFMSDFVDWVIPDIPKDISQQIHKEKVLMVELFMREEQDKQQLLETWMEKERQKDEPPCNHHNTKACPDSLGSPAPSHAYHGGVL
Briefly: apical membrane current (Ussing chamber) in FRT-ANO1 cells; whole-cell patch clamp; YFP iodide influx. The class given is cell-based. Background: Patch clamp records ionic current or voltage across a cell membrane.

SMILES strings stand for the structures.

Take `COC1=C(OC)C(=O)C(CCCCCCCCCCO)=C(C)C1=O` [idebenone, 2,3-dimethoxy-5-methyl-6-(10-hydroxydecyl)-21,4-benzoquinone]: the concentration for half-maximal inhibition (IC50) stood at 9.2 µM.

In general, IC50 refers to the midpoint of a concentration-inhibition curve.

The values above are taken from article PMC4511415, “Inhibition of ANO1/TMEM16A Chloride Channel by Idebenone and Its Cytotoxicity to Cancer Cell Lines” (PLoS ONE, 2015).
